Laboratory results published in US9232799B2, “N-[(het)arylethyl)] pyrazole(thio)carboxamides and their heterosubstituted analogues” (BAYER INTELLECTUAL PROPERTY GMBH, priority 2010, dated 2016).
Where “and” joins values, the source holds several entries; their conditions need not be identical. Equal values may be shown once.

Experiments:
Puccinia triticina = assay: In vivo preventive test on Puccinia triticina (wheat); conditions: evaluated 8 days after inoculation; for Efficacy: dose 500 ppm of active ingredient
[1] = test system: Fusarium nivale (var. majus); assay: In vivo curative test on Fusarium nivale (wheat); conditions: 500 ppm of active ingredient, evaluated 5 days after inoculation
Alternaria solani = assay: In vivo preventive test on Alternaria solani (tomato); conditions: 500 ppm of active ingredient, evaluated 7 days after inoculation
From the text: One day after this treatment, the plants are inoculated with an aqueous spore suspension of Alternaria solani.

aflatoxines production = assay: microbe, parasite or virus in culture; assay type: cell-based, Aspergillus parasiticus; conditions: 50 μM
Venturia inaequalis = assay: In vivo preventive test on Venturia inaequalis (apple scab); conditions: 100 ppm of active ingredient, evaluated 10 days after inoculation
Fusarium graminearum = assay: microbe, parasite or virus in culture; assay type: cell-based; conditions: 50 μM
Pyrenophora teres = assay: In vivo preventive test on Pyrenophora teres (barley); conditions: 500 ppm of active ingredient, evaluated 7-9 days after inoculation
From the text: One day after this treatment, the plants are inoculated with an aqueous spore suspension of Pyrenophora teres.

Uromyces appendiculatus = assay: In vivo preventive test on Uromyces appendiculatus (beans); conditions: 100 ppm of active ingredient, evaluated 10 days after inoculation
Septoria tritici = assay: In vivo preventive test on Septoria tritici (wheat); conditions: 500 ppm of active ingredient, evaluated 21 days after inoculation
From the text: (§1) To test for preventive activity, young plants are sprayed with the preparation of active compound or active compound combination at the stated rate of application.

Leptosphaeria nodorum = assay: In vivo preventive test on Leptosphaeria nodorum (wheat); conditions: 500 ppm of active ingredient, evaluated 7-9 days after inoculation
From the text: One day after this treatment, the plants are inoculated with an aqueous spore suspension of Leptosphaeria nodorum.

[2] = test system: Blumeria graminis f.sp. hordei; assay: In vivo preventive test on Blumeria graminis (barley); conditions: 500 ppm of active ingredient, evaluated 7 days after inoculation
From the text: as §1

Phakopsora pachyrhizi = assay: In vivo protective test on Phakopsora pachyrhizi (soybeans); conditions: dose 250 ppm of active ingredient, evaluated 11 days after inoculation
[3] = logP by HPLC on reversed-phase column (C 18), EEC Directive 79/831 Annex V.A8; assay type: physicochemical
Description: In table 1, the logP values were determined in accordance with EEC Directive 79/831 Annex V.A8 by HPLC (High Performance Liquid Chromatography) on a reversed-phase column (C 18), using the method described below: Temperature: 40° C.; […]

Sphaerotheca fuliginea = assay: In vivo preventive test on Sphaerotheca fuliginea (cucumber); conditions: 500 ppm of active ingredient, evaluated 7 days after inoculation
From the text: One day after this treatment, the plants are inoculated with an aqueous spore suspension of Sphaerotheca fuliginea.

[4] = test system: Fusarium nivale (var. majus); assay: In vivo preventive test on Fusarium nivale (wheat); conditions: 500 ppm of active ingredient, evaluated 5 days after inoculation
From the text: as §1

Botrytis cinerea = assay: In vivo preventive test on Botrytis cinerea (beans)
From the text: To test for preventive activity, young plants are sprayed with the preparation of active compound. After the spray coating has dried on, 2 small pieces of agar covered with growth of Botrytis cinerea are placed on each leaf.

[5] = preventive, beans, 100 ppm of active ingredient, lesion size 2 days after inoculation

Compound	Efficacy (Puccinia triticina)	Efficacy [1]	Efficacy (Alternaria solani)	% Inhibition of Aflatoxin at 50 μM (aflatoxines production)	Efficacy (Venturia inaequalis)	% Inhibition of fungal growth at 50 μM (Fusarium graminearum)	Efficacy (Pyrenophora teres)	Efficacy (Uromyces appendiculatus)	Efficacy (Septoria tritici)	Efficacy (protection) (Puccinia triticina; preventive, 500 ppm of active ingredient)	Efficacy (Leptosphaeria nodorum)	Efficacy [2]	Efficacy (Phakopsora pachyrhizi)	logP [3]	Efficacy (Sphaerotheca fuliginea)	Efficacy [4]	Efficacy (Botrytis cinerea; [5])	Efficacy (Botrytis cinerea; dose 500 ppm of active ingredient, table K10)	Efficacy (Botrytis cinerea; preventive, beans, 500 ppm of active ingredient, lesion size 2 days after inoculation)
COC(c1cc(Cl)cc(Cl)c1)C(C)NC(=O)c1c(C(F)F)nn(C)c1Cl (mixture of isomers) [Example 108]	100%	100%	90%	100%	100%	100%	100%	100%	100%										
Cn1nc(C(F)F)c(C(=O)N(C2CC2)C2CCCC2c2ccc(Cl)cc2Cl)c1F (centres unmarked) [Example 211]	100% and 98%		100%	100%	100%	100%	100%	100%	100%	greater than 95%	95%	100%	80%	4.67	100%	100%	100%		
Cn1nc(C(F)F)c(C(=O)N(C[Si](C)(C)c2cccc(Cl)c2)C2CC2)c1F [Example 235]	100%		100%	100%	100%	100%	100%	100%	100%		100%	94%	100%	4.18	95%	100%	99%		
CC(Cc1ccc(Cl)cc1Cl)NC(=S)c1c(C(F)F)nn(C)c1F (centres unmarked) [Example 70]		92%	95%	100%	100%	100%	100%	75%			78%	100%		4.16	98%		100%		
Cn1nc(C(F)F)c(C(=O)N(C[Si](C)(C)c2ccccc2Cl)C2CC2)c1F [Example 231]	100%		94%	100%	99%	100%	100%	100%	100%		100%	100%	80%	4.13	100%	83%	99%		
CCOC(c1ccc(Cl)cc1Cl)C(C)NC(=O)c1c(C(F)F)nn(C)c1F (mixture of isomers) [Example 83]		100%	100%	100%	100%	100%	100%		100%		90%	100%			100%		98%		
Cn1nc(C(F)F)c(C(=O)N(C[Si](C)(C)c2ccc(Cl)cc2Cl)C2CC2)c1F [Example 238]	100%		94%	100%	100%	100%	100%	100%	100%		100%	100%	85%	4.78	98%	83%	100%		
CCC(NC(=O)c1c(C(F)F)nn(C)c1Cl)C(OC)c1ccc(Cl)cc1Cl (mixture of isomers) [Example 76]		86%	95%	100%	100%	100%	100%		100%			100%			93%		72%		
Cn1nc(C(F)F)c(C(=O)N(C[Si](C)(C)c2cc(Cl)cc(Cl)c2)C2CC2)c1F [Example 242]	100%		100%	100%	100%	100%	100%	100%	100%		100%	100%	99%	4.78		83%	100%	100%	total protection
CCC(NC(=O)c1c(C(F)F)nn(C)c1F)C(OC)c1ccc(Cl)cc1Cl (centres unmarked) [Example 77]		100%	100%	100%	100%	100%	80%		100%		95%	100%		3.94	95%		97%		
